Laboratory results published in the supplement of paper PMC10307832.

Tests used:
Test in all cases: relative viability (nuclei count vs DMSO), 5 days (fraction); higher = more cells survive
Vismodegib + Alpelisib = compound: CS(=O)(=O)c1ccc(C(=O)Nc2ccc(Cl)c(-c3ccccn3)c2)c(Cl)c1 [Vismodegib] + Cc1nc(NC(=O)N2CCC[C@H]2C(N)=O)sc1-c1ccnc(C(C)(C)C(F)(F)F)c1 [Alpelisib] (partner 2 µM)
How it was run: (§1)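 Dosing by pin tool came one day after lung cancer cell lines were seeded in 1536-well plates, using either one drug or a fixed anchor-drug dose plus five library-drug doses (not always all listed) in √10 steps. After 5 days, nuclei were counted on 4× images. Relative viability is treated-well nuclei count divided by vehicle-well nuclei count, and values are medians of duplicate plates.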

Vismodegib + Trametinib = compound: CS(=O)(=O)c1ccc(C(=O)Nc2ccc(Cl)c(-c3ccccn3)c2)c(Cl)c1 [Vismodegib] + CC(=O)Nc1cccc(-n2c(=O)n(C3CC3)c(=O)c3c(Nc4ccc(I)cc4F)n(C)c(=O)c(C)c32)c1 [Trametinib] (partner 0.02 µM)
How it was run: as §1

VE-821 + Palbociclib = compound: CS(=O)(=O)c1ccc(-c2cnc(N)c(C(=O)Nc3ccccc3)n2)cc1 [VE-821] + CC(=O)c1c(C)c2cnc(Nc3ccc(N4CCNCC4)cn3)nc2n(C2CCCC2)c1=O [Palbociclib] (partner 0.5 µM)
How it was run: as §1

Ruxolitinib + Luminespib = compound: N#CC[C@H](C1CCCC1)n1cc(-c2ncnc3[nH]ccc23)cn1 [Ruxolitinib] + CCNC(=O)c1noc(-c2cc(C(C)C)c(O)cc2O)c1-c1ccc(CN2CCOCC2)cc1 [Luminespib] (partner 0.01 µM)
How it was run: as §1

Cell Line | relative viability (Vismodegib + Alpelisib; first compound 0.08 µM) | relative viability (Vismodegib + Alpelisib; first compound 0.253 µM) | relative viability (Vismodegib + Alpelisib; first compound 0.8 µM) | relative viability (Vismodegib + Alpelisib; first compound 2.53 µM) | relative viability (Vismodegib + Alpelisib; first compound 8 µM) | relative viability (Vismodegib + Trametinib; first compound 0.08 µM) | relative viability (Vismodegib + Trametinib; first compound 0.253 µM) | relative viability (Vismodegib + Trametinib; first compound 0.8 µM) | relative viability (Vismodegib + Trametinib; first compound 2.53 µM) | relative viability (Vismodegib + Trametinib; first compound 8 µM) | relative viability (VE-821 + Palbociclib; first compound 0.08 µM) | relative viability (VE-821 + Palbociclib; first compound 0.253 µM) | relative viability (VE-821 + Palbociclib; first compound 0.8 µM) | relative viability (VE-821 + Palbociclib; first compound 2.53 µM) | relative viability (VE-821 + Palbociclib; first compound 8 µM) | relative viability (Ruxolitinib + Luminespib; first compound 0.08 µM) | relative viability (Ruxolitinib + Luminespib; first compound 0.253 µM) | relative viability (Ruxolitinib + Luminespib; first compound 0.8 µM) | relative viability (Ruxolitinib + Luminespib; first compound 2.53 µM) | relative viability (Ruxolitinib + Luminespib; first compound 8 µM)
NCI-H727 | 0.601 | 0.563 | 0.555 | 0.529 | 0.611 | 0.446 | 0.367 | 0.405 | 0.403 | 0.418 | 0.737 | 0.726 | 0.618 | 0.638 | 0.659 | 0.3 | 0.357 | 0.655 | 0.35 | 0.2
CAL-12T | 1.12 | 1.02 | 1.37 | 1.2 | 1.3 | 0.309 | 0.333 | 0.372 | 0.355 | 0.426 | 0.571 | 0.373 | 0.472 | 0.51 | 0.308 | 0.364 | 0.771 | 0.448 | 0.305 | 0.335
NCI-H441 | 0.647 | 0.633 | 0.829 | 0.824 | 0.745 | 0.512 | – | 0.409 | 0.469 | 0.489 | 0.251 | 0.167 | 0.253 | 0.246 | 0.228 | 0.299 | 0.424 | 0.319 | 0.472 | 0.317
NCI-H1944 | 0.768 | 0.862 | 0.744 | 0.809 | 0.777 | 0.386 | 0.395 | 0.425 | – | 0.399 | 0.408 | 0.325 | 0.256 | 0.354 | 0.236 | 0.696 | 0.628 | 0.723 | 0.73 | 0.716
RERF-LC-KJ | 0.789 | 0.748 | 0.909 | 0.748 | 0.773 | 0.847 | 0.823 | 0.84 | 0.826 | 0.862 | 1.2 | 1.01 | 0.973 | 0.929 | 0.792 | 1.21 | 1.31 | 1.4 | 1.21 | 0.919
NCI-H838 | 0.904 | 0.952 | 1.09 | 0.978 | 1.02 | 0.536 | 0.488 | 0.535 | 0.5 | 0.624 | 0.222 | 0.186 | 0.218 | 0.266 | 0.191 | 0.218 | 0.233 | 0.316 | 0.239 | 0.221
